According to US20040126359A1, “Hedgehog” (priority 2001, published 2004):

What was measured:
[1] = system: CD4+ T-cells; experiment: Cell cycle analysis (propidium iodide, Vindelov method); type: cell-based, mouse
Protocol: (§1) CD4^+ T-cells were cultured in RPMI 1640 medium (Life Technologies, Paisley, UK) supplemented with 10% FCS (Life Technologies), 2 mM L-glutamine, (Sigma, Dorset, UK), 20 μg/ml penicillin/streptomycin (Life Technologies) and […] 2-mercaptoethanol (Sigma). Anti-CD3/28 antibody activation was carried out at 2 concentrations, namely ‘sub-optimal’ (anti-CD3 at 0.25 μg/ml and anti-CD28 at 0.1 μg/ml) and ‘optimal’ (anti-CD3 at 1 μg/ml and anti-CD28 at 5 μg/ml). Tissue culture plates (Corning Inc., NY, USA) were coated with the anti-CD3 antibody for 90 min at 37° C. prior to addition of the CD4^+ T-cells. Recombinant mouse Shh amino-terminal peptide (R&D systems Europe Ltd, Abingdon, UK) was added into cultures at a concentration of 500 ng/ml. 5E1 antibody was used at either 20 μg/ml or 50 μg/ml and the isotype control was used at 20 μg/ml. The concentrations used were based on results of dose response curves (data not shown).
The CD4^+ T-cells were cultured as above in 48-well plates with and without addition of exogenous Shh or 5E1. At 72 hr post-activation, the cells were spun at 13,000 rpm for 7 min then re-suspended in citrate buffer. Cell cycle analysis was carried out using the Vindelov method (Vindelov et al, 1990). Briefly, the cells were trypsinized (Sigma) to expose the nucleus before being stained with propidium iodide (Sigma). Cell cycle analysis was then performed on an Epics© XL flow cytometer (Beckman Coulter UK Ltd, Bucks, UK). The machine counted 30,000 nuclei in each sample and the software analysed the % of cells in each stage of the cell cycle sub-G1, G1, S phase and G2/M. From these figures, the % of live cells (G1, S and G2/M) was calculated, and from this, the % of live cells in G1 and S/G2 phases.
The effect of Shh on CD4^+ T-cell proliferation was investigated further using cell cycle analysis to allow us to examine if Shh affected cell survival or promoted entry in the S/G2 proliferative phase of the cell cycle. As with the ^3H-TdR incorporation studies, this analysis was carried out on resting CD4^+ T-cells and those optimally and sub-optimally activated. Exogenous Shh was added at the time of (t=0) or 24 hr before (t=−24 hr) anti-CD3/28 antibody activation and the T-cells were analysed 72 hr later. In the case of resting CD4^+ T-cells, Shh peptide was added at t=0, and the cells were analysed at 24 hr, 48 hr and 72 hrs. The % cells distributed in sub-G1, G1, S and G2 phases of the cell cycle was analysed, and from this the % live cells in G1 and S/G2 phases was calculated.

[2] = system: human CD8 T-cells; experiment: Proliferation of human CD8 T-cells cultured with Shh N-terminal active peptide (3H thymidine); type: cell-based; conditions: activated CD8+ T-cells; dose dependent
[3] = system: CD4+ T-cells; experiment: T-cell proliferation assay (3H-TdR incorporation); type: cell-based, mouse
Protocol: Single cell suspensions from pooled C57BL/6 mouse spleens were applied to negative selection CD4^+ T-cell columns (R&D systems Europe Ltd, Abingdon, UK) as per manufacturers instructions. Purity was checked using FACS staining with an anti-CD4^FITC antibody and this ranged between 88-93%.
as §1
The CD4^+ T-cells were cultured as above in 96-well plates with and without addition of exogenous Shh or 5E1. They were pulsed after 48 hr of anti-CD3/28 activation with 20 μl of ^3H-TdR (50 μCi/ml) (Amersham), harvested at 72 hr and read on a betaplate scintillation counter (Wallac UK, Milton Keynes, UK).
Purified peripheral CD4^+ T-cells were cultured with and without the addition of the biologically active amino terminal Shh peptide. An initial titration curve established that 500 ng/ml was the optimal dose of the Shh peptide to enhance proliferation of peripheral CD4^+ T-cells (data not shown), and this concentration was used in all subsequent experiments. Shh was added to CD4^+ T-cells that were resting, maximally stimulated with anti-CD3 (1 μg/ml) and anti-CD28 (5 μg/ml) antibodies or sub-optimally activated with anti-CD3 (0.25 μg/ml) and anti-CD28 (0.1 μg/ml).

[4] = optimally activated, Shh 24 hr prior to activation
[5] = sub-optimally activated, Shh peptide at t=0

Substance: Shh peptide: Recombinant mouse Shh amino-terminal peptide (R&D systems); biologically active N-terminal Sonic hedgehog fragment
- effect on cell cycle progression, direct addition on its own ([1]; FIG. 13, Shh 10 and 500 ng/ml, relative to the anti-Shh effect): slight effect in the opposite direction
- % increase in live cells in S/G2 phase, range ([1]; optimally activated (anti-CD3 1 μg/ml, anti-CD28 5 μg/ml), Shh at t=0, 72 hr): 9%-144%
- % of live cells with and without Shh [1, 4]: very similar
- increase in cells in S/G2 phase, range [1, 4]: 53.1%-97.1%
- increase in cells in S/G2 phase, mean ([1]; optimally activated, Shh 24 hr prior to activation, n=3, p<0.01): 71.5%
- % of live cells with and without Shh ([1]; optimally activated, Shh at t=0): very similar
- % increase in live cells in S/G2 phase, mean ([1]; optimally activated, Shh at t=0, n=3, not statistically significant): 63.7%
- difference in % of cells in S/G2 phase ([1]; resting CD4+ T-cells, Shh 500 ng/ml): negligible
- effect on cell survival ([1]; resting CD4+ T-cells, Shh 500 ng/ml, 24, 48, 72 hr): minimal effects
- increase in % of live cells entering S/G2 phase, range ([1]; sub-optimally activated, Shh peptide 24 hr prior to activation): 34.6%-110%
- increase in % of live cells entering S/G2 phase, mean ([1]; sub-optimally activated, Shh peptide 24 hr prior to activation, n=3, p<0.03): 61.5%
- % of live CD4+ T-cells ([1]; sub-optimally activated, Shh peptide 24 hr prior to activation, p<0.02): increase
- % increase in live cells in S/G2 phase, range [1, 5]: 27.8%-77.8%
- % live cells with and without Shh [1, 5]: similar
- % increase in live cells in S/G2 phase, mean ([1]; sub-optimally activated, Shh peptide at t=0, n=3, p<0.02): 55.8%
- incorporation of 3H-thymidine [2]: significantly enhances
- optimal dose to enhance proliferation of peripheral CD4+ T-cells ([3]; initial titration curve (data not shown)): 500 ng/mL
- level of proliferation (3H-TdR incorporation) ([3]; maximally stimulated (anti-CD3 1 μg/ml, anti-CD28 5 μg/ml), Shh peptide 500 ng/ml added at t=-24 hr or t=0): no significant difference
- degree of proliferation ([3]; resting CD4+ T-cells, Shh peptide 500 ng/ml): No significant difference
- increase in proliferation, range ([3]; sub-optimal activation, Shh peptide 500 ng/ml 24 hr prior to activation): 16-63%
- increase in proliferation, mean ([3]; sub-optimal activation, Shh peptide 500 ng/ml 24 hr prior to activation, n=3, p<0.04): 46%
- increase in CD4+ T-cell proliferation, mean ([3]; sub-optimal activation, Shh peptide 500 ng/ml at t=0, 72 hr, p<0.01): 101.6%
- increase in CD4+ T-cell proliferation, range ([3]; sub-optimal anti-CD3 0.25 μg/ml, anti-CD28 0.1 μg/ml, Shh peptide 500 ng/ml at t=0, 72 hr): 76.2-128%
